# Assay results as given in patent publication US9476050B2, “Combination therapy” (TURUN YLIOPISTO, priority 2011, dated 2016).
# Entries after “also recorded” stand apart in the source; their conditions may differ. *: point of attachment. Cbz = O=C(OCc1ccccc1)*; CH2F = FC*
# How the values were obtained:
# Type in all cases: cell-based, human
# T98G glioblastoma cells [1] = assay: Apoptosis assay by sub-G0/G1 fraction estimation (apoptotic nuclear fragmentation, PI staining, FACS); conditions: for Potentiation % (apoptotic nuclear fragmentation): T98G transfected with PME-1 specific dsRNA; for level of apoptosis in PME-1 depleted cells: PME-1 siRNA 48 hrs, then drug 24 hrs; for sensitization to STS mediated apoptosis: siRNA or chemical PP2A activator followed by STS 24 hrs; for reversal of PME-1 siRNA and STS mediated apoptosis: agent added to, or siRNA co-transfected with, PME-1 siRNA plus STS
# Procedure: The percentage of the sub-G0/G1 fraction containing fragmented nuclei stained with Propidium iodide (P1) was taken as a measure of apoptotic cells. 3.5-4×10^4 cells were plated in 24-well plates, transfected with siRNA for 48 hrs, and then treated with indicated concentration of test compounds in fresh media. After 24 hrs of treatment, both floating and adherent cells were harvested by centrifugation. Cell pellets were resuspended in 400 μl of hypotonic PI buffer, containing 40 mM Tri-sodium citrate (Merck), 0.3% Triton X-100 (Sigma-Aldrich) and 50 μg/ml Propidium iodide (Sigma-Aldrich) in PBS, and incubated at room temperature for 10 minutes in dark. The flow cytometric analysis of PI stained nuclei was performed and the recorded data was analyzed using a FACScan flow cytometer and software (Becton Dickinson) respectively.
# In experiments using pan-caspase inhibitor, cells were kept in growth media containing 30 μM Z-VAD-FMK starting from 18 hrs after transfection till the PI staining. For treatment with PP2A activators FTY720, Sodium Selenate and Xylulose-5-phosphate, cells were kept in respective drugs throughout the experiment starting from 24 hrs after transfection. PP2A inhibitor, Okadaic acid, treatment was given for 24 hrs after 24 hrs of transfection.
# The T98G cells transfected with siRNA for 48 hrs were given drug treatments for 24 hrs and were subsequently lysed, and their nuclei were stained using hypotonic propidium iodide buffer. The lysates were analysed for changes in the sub-G0/G1 fraction of fragmented nuclei by flow cytometry (FACS) (FIG. 1B). Condensation and fragmentation of nucleus is a key biochemical feature of apoptosis and sub-G0/G1 analysis has been widely used for detection of apoptosis (FEBS Lett., 1986, 194(2):347-50; Cytometry, 1991, 12(4):323-329; Nature Protocols, 2006, 1:1458-1461).
# [2] = tested on: U251MG glioblastoma cells; assay: Colony formation assay, U251MG; conditions: scrambled or PME-1 siRNA, then drug 2 days; FIG. 5C
# Description: (§1) Cells plated in very low density (4-6×10^3) in 6-well plates were allowed to grow for about 7 days until they form small colonies. These cells were then transfected with Scrambled or PME-1 siRNA using Lipofectamine RNAiMAX reagent (Invitrogen) according to the manufacturer's instructions. After 48 hrs, treatments were given with indicated concentration of chemical drugs for another 48 hrs. Cell colonies were washed with PBS, fixed with 3.7% formaldehyde and stained with 0.2% crystal violet solution (made in 10% ethanol) for 15 minutes at room temperature each. Excess stain was removed by repeated washings with PBS. Plates were dried and pictures were taken with Olympus SP-600UZ camera or Epson perfection V700 scanner and analysed with ImageJ.
# U87MG glioblastoma cells = assay: Colony formation assay, U87MG; conditions: scrambled or PME-1 siRNA, then drug 2 days; FIG. 5D
# Description: as §1
# T98G glioblastoma cells [3] = assay: Colony formation assay, T98G
# Description: as §1
# (§2) The efficacy of this treatment combination was then tested by colony formation assay in T98G glioblastoma cells and another glioblastoma cell line U118MG. For this experiment, these cells were grown in 6-well plates until the formation of small colonies which were then transfected with Scrambled or PME-1 siRNA for 48 hrs followed by treatment with STS at the indicated concentrations for another 48 hrs.
# [4] = tested on: U118MG glioblastoma cells; assay: Colony formation assay, U118MG
# Description: as §1, §2
# T98G glioblastoma cells [5] = assay: Cell viability assay, CellTiter-glo (CTG); conditions: PME-1 siRNA plus STS treatment
# Procedure: Cell viability was determined by CellTiter-glo (CTG) assay which measures the cellular ATP levels as an indicator of metabolically active and viable cells. CTG reagent kit was purchased from Promega Corp. and assays were performed according to their recommendations. Assays were performed in white polystyrene 96-well plates (Nunc, Thermo Fisher Scientific Inc.) and luminescence was measured with Perkin Elmer Victor2 Plate Reader.
# [6] = tested on: Caspase-3 and -7 activity; assay: Caspase-Glo 3/7 assay in T98G cells; conditions: PME-1 depletion in combination with STS treatment
# Procedure: Caspase-3 and -7 activity was measured by luminescence based method, which utilize a substrate containing Caspase-3 and -7 target peptide DEVD, named Caspase-Glo 3/7 Assay (Promega Corp.). Assays were performed in white polystyrene 96-well plates (Nunc, Thermo Fisher Scientific Inc.) according to manufacturer's instructions and luminescence was measured with Perkin Elmer Victor2 Plate Reader.
# [7] = PME-1 depletion or STS treatment alone
# [8] = combination of PME-1 siRNA 48 hrs and STS 48 hrs
compound,measurement,setting,value
"O=C1NC(=O)c2c1c1c3ccccc3[nH]c1c1[nH]c3ccccc3c21 [Arcyriaflavin A, 12,13-Dihydro-5H-indolo[2,3-a] pyrrolo[3,4-c] carbazole-5,7(6H)-dione]",Potentiation % (apoptotic nuclear fragmentation),T98G glioblastoma cells [1]; 5 μM drug,5-10%
"C[C@]12O[C@H](C[C@]1(O)CO)n1c3ccccc3c3c4c(c5c6ccccc6n2c5c31)CNC4=O [CEP-701, (9S,10S,12R)-2,3,9,10,11,12-Hexahydro-10-hydroxy-10-(hydroxymethyl)-9-methyl-9,12-epoxy-1H-diindolo[1,2,3-fg:3′,2′,1′-kl] pyrrolo[3,4-i][1, 6]benzodiazocin-1-one]",Potentiation % (apoptotic nuclear fragmentation),T98G glioblastoma cells [1]; 50 nM drug,2-5%
same,Potentiation % (apoptotic nuclear fragmentation),T98G glioblastoma cells [1]; 5 μM drug,75-80%
same,level of apoptosis in PME-1 depleted cells,T98G glioblastoma cells [1]; T98G,levels even higher than STS itself
"Cn1cc(C2=C(c3cn(C4CCN(Cc5ccccn5)CC4)c4ccccc34)C(=O)NC2=O)c2ccccc21 [Enzastaurin, 3-(1-Methyl-1H-indol-3-yl)-4-(1-(1-(2-pyridinylmethyl)-4-piperidinyl)-1H-indol-3-yl)-1H-pyrrole-2,5-dione]",Potentiation % (apoptotic nuclear fragmentation),T98G glioblastoma cells [1]; 5 μM drug,15-20%
CCCCCCCCc1ccc(CCC(N)(CO)CO)cc1 [FTY720],sensitization to STS mediated apoptosis,T98G glioblastoma cells [1]; T98G,None of these chemical PP2A activators were able to sensitize
"Cn1c2ccccc2c2c3c(c4c5ccccc5n(CCC#N)c4c21)CNC3=O [GÖ-6976, 12-(2-Cyanoethyl)-6,7,12,13-tetrahydro-13-methyl-5-oxo-5H-indolo[2,3-a]pyrrolo[3,4-c]carbazole]",Potentiation % (apoptotic nuclear fragmentation),T98G glioblastoma cells [1]; 5 μM drug,15-20%
CC1CNCCN1S(=O)(=O)c1cccc2cnccc12 (stereo not shown) [H7],level of apoptosis in PME-1 depleted cells,T98G glioblastoma cells [1]; T98G,moderate levels of apoptosis
"COC(=O)[C@@]1(O)C[C@H]2O[C@]1(C)n1c3ccccc3c3c4c(c5c6ccccc6n2c5c31)C(=O)NC4 [K252a, (9S,10R,12R)-2,3,9,10,11,12-Hexahydro-10-hydroxy-9-methyl-1-oxo-9,12-epoxy-1H-diindolo[1,2,3-fg:3′,2′,1′kl] pyrrolo[3,4-i][1,6] benzodiazocine-10-carboxylic acid methyl ester]",Potentiation % (apoptotic nuclear fragmentation),T98G glioblastoma cells [1]; 500 nM drug,10-15%
same,Potentiation % (apoptotic nuclear fragmentation),T98G glioblastoma cells [1]; 5 μM drug,80-90%
same,level of apoptosis in PME-1 depleted cells,T98G glioblastoma cells [1]; T98G,levels even higher than STS itself
same,cell killing activity with PME-1 depletion (colony formation),[2],enhanced the cell killing activity
same,cell killing activity with PME-1 depletion (colony formation),U87MG glioblastoma cells,enhanced the cell killing activity
"O=C1NCc2c1c1c3ccccc3[nH]c1c1[nH]c3ccccc3c21 [K252c, 6,7,12,13-Tetrahydro-5H-indolo[2,3-a]pyrrolo[3,4-c] carbazol-5-one]",Potentiation % (apoptotic nuclear fragmentation),T98G glioblastoma cells [1]; 5 μM drug,15-20%
"C=C1[C@@H](O)[C@@H]2O[C@]3(CC[C@H](/C=C/[C@@H](C)[C@@H]4CC(C)=C[C@@]5(O[C@H](C[C@@](C)(O)C(=O)O)CC[C@H]5O)O4)O3)CC[C@H]2O[C@@H]1[C@@H](O)C[C@H](C)[C@H]1O[C@@]2(CCCCO2)CC[C@H]1C [OA, okadaic acid]",reversal of PME-1 siRNA and STS mediated apoptosis,T98G glioblastoma cells [1]; T98G,sufficient to rescue cells
"CO[C@@H]1[C@H](N(C)C(=O)c2ccccc2)C[C@H]2O[C@]1(C)n1c3ccccc3c3c4c(c5c6ccccc6n2c5c31)C(=O)NC4 [PKC412, [9S-(9α,10β,11β, 13α)]-N-(2,3,10, 11,12,13-Hexahydro-10-methoxy-9-methyl-1-oxo-9,13-epoxy-1 H,9H-diindolo [1,2,3-gh:3′,2′,1′-lm]pyrrolo[3,4-j][1,7]benzodiazonin-11-yl)-N-methyl benzamide]",Potentiation % (apoptotic nuclear fragmentation),T98G glioblastoma cells [1]; 500 nM drug,5-10%
same,Potentiation % (apoptotic nuclear fragmentation),T98G glioblastoma cells [1]; 5 μM drug,75-80%
same,level of apoptosis in PME-1 depleted cells,T98G glioblastoma cells [1]; T98G,levels even higher than STS itself
same,cell killing activity with PME-1 depletion (colony formation),[2],enhanced the cell killing activity
same,cell killing activity with PME-1 depletion (colony formation),U87MG glioblastoma cells,enhanced the cell killing activity
Cn1cc(C2=C(c3cn(CCCSC(=N)N)c4ccccc34)C(=O)NC2=O)c2ccccc21 [RO-31-8220],Potentiation % (apoptotic nuclear fragmentation),T98G glioblastoma cells [1]; 5 μM drug,5-10%
same,level of apoptosis in PME-1 depleted cells,T98G glioblastoma cells [1]; T98G,not active
"COC1C(CO)OC(n2c3c(Cl)cccc3c3c4c(c5c6cccc(Cl)c6[nH]c5c32)C(=O)NC4=O)C(O)C1O (stereo not drawn) [Rebeccamycin, 5h-indolo(2,3-a)pyrrolo(3,4-c)carbazole-5,7(6h)-dione,1,11-dichloro-12,13-dihy;dro-12-(4-o-methyl-beta-d-glucopyranosyl)]",Potentiation % (apoptotic nuclear fragmentation),T98G glioblastoma cells [1]; 5 μM drug,5-10%
"O=C1NC(=O)c2c1c1c3ccccc3n3c1c1c2c2ccccc2n1C1CCC3O1 [SB-218078, 9,10,11,12-Tetrahydro-9,12-epoxy-1H-diindolo [1,2,3-fg:3′,2′,1′-kl] pyrrolo[3,4-i][1,6] benzodiazocine-1,3(2H)-dione]",Potentiation % (apoptotic nuclear fragmentation),T98G glioblastoma cells [1]; 50 nM drug,2-5%
same,Potentiation % (apoptotic nuclear fragmentation),T98G glioblastoma cells [1]; 5 μM drug,25-30%
same,level of apoptosis in PME-1 depleted cells,T98G glioblastoma cells [1]; T98G,moderate levels of apoptosis
"CN[C@@H]1C[C@H]2O[C@@](C)([C@@H]1OC)n1c3ccccc3c3c4c(c5c6ccccc6n2c5c31)C(=O)NC4 [Staurosporine, [9S-(9α,10β,11β, 13α)]-2,3,10,11, 12,13-Hexahydro-10-methoxy-9-methyl-11-(methylamino)-9,13-epoxy-1H,9H-diindolo[1,2,3-gh:3′,2′,1′-lm] pyrrolo[3,4-j][1,7] benzodiazonin-1-one]",Potentiation % (apoptotic nuclear fragmentation),T98G glioblastoma cells [1]; 50 nM drug,50-60%
same,level of apoptosis in PME-1 depleted cells,T98G glioblastoma cells [1]; T98G,very high level of apoptosis
same,level of apoptosis in PME-1 depleted cells,"T98G glioblastoma cells [1]; T98G, listed as STS",dose dependent manner; also recorded: highly sensitive
same,concentration above which STS alone induces cell death,T98G glioblastoma cells [1]; control (Scrambled siRNA transfected) T98G cells,higher than 50 nM
same,concentration above which STS alone gives limited amount of cell death,T98G glioblastoma cells [1]; untransfected T98G cells,higher than 30 nM
same,colony formation ability,T98G glioblastoma cells [3]; [7],moderately reduced
same,colony formation ability,T98G glioblastoma cells [3]; [8],almost complete loss of colonies
same,colony formation ability,[4]; [7],moderately reduced
same,colony formation ability,[4]; [8],almost complete loss of colonies
same,cell killing activity with PME-1 depletion (colony formation),[2],enhanced the cell killing activity
same,cell killing activity with PME-1 depletion (colony formation),U87MG glioblastoma cells,enhanced the cell killing activity
same,cell viability,T98G glioblastoma cells [5],drastic decrease
same,increase of the activity of Caspase-3/7,[6],above 6 fold
"CN[C@@H]1C[C@H]2O[C@@](C)([C@@H]1OC)n1c3ccccc3c3c4c(c5c6ccccc6n2c5c31)C(=O)N[C@@H]4O [UCN-01, (9S)-2,3,10,11,12,13-Hexahydro-3α-hydroxy-10α-methoxy-9-methyl-11α-methyl amino-9β,13β-epoxy-1H,9H-diindolo [1,2,3-gh:3′,2′,1′-lm] pyrrolo[3,4-j][1,7] benzodiazonin-1-one]",Potentiation % (apoptotic nuclear fragmentation),T98G glioblastoma cells [1]; 50 nM drug,5-10%
same,Potentiation % (apoptotic nuclear fragmentation),T98G glioblastoma cells [1]; 5 μM drug,80-90%
same,level of apoptosis in PME-1 depleted cells,T98G glioblastoma cells [1]; T98G,levels even higher than STS itself
O=C(CO)[C@@H](O)[C@H](O)COP(=O)(O)O [Xylulose-5-phosphate],sensitization to STS mediated apoptosis,T98G glioblastoma cells [1]; T98G,None of these chemical PP2A activators were able to sensitize
Cbz-Val-Ala-Asp-CH2F,reversal of PME-1 siRNA and STS mediated apoptosis,T98G glioblastoma cells [1]; T98G,complete reversal
Sodium selenate,sensitization to STS mediated apoptosis,T98G glioblastoma cells [1]; T98G,None of these chemical PP2A activators were able to sensitize
TRAIL,synergistic effect of PME-1 depletion / benefit of combination with PME-1 siRNA,"T98G glioblastoma cells [1]; PME-1 siRNA versus scrambled siRNA, T98G",did not show the same trend
